Earlier results on 19 compounds are cited in Sander's compilation of Henry's law constants (doi:10.1021/je0497045).

This data set is described as follows: Henry solubility constant Hcp at 298.15 K (mol/(m3 Pa)). The following applies: reference: Plyasunova et al. (2004); cited value.
Consider `CCCCS` [1-butanethiol], for which the “Henry solubility constant Hcp” value is 0.0014. Turning to `CCCCCCCS` [1-heptanethiol], the “Henry solubility constant Hcp” value was 0.00042. In the case of `CCCCCCS` [1-hexanethiol], the “Henry solubility constant Hcp” value is 0.00052. For `CCCCCS` [1-pentanethiol], the “Henry solubility constant Hcp” value is 0.00087. On to `CCCS` [1-propanethiol], for which the “Henry solubility constant Hcp” value was 0.0017. Turning to `CSSSC` [2,3,4-trithiapentane], the “Henry solubility constant Hcp” value is 0.012. Turning to `CCC(C)S` (centres undefined) [2-butanethiol], the “Henry solubility constant Hcp” value is 0.0013. `CC(C)(C)S` [2-methyl-2-propanethiol]: the “Henry solubility constant Hcp” value was 0.00045. Consider `CC(C)CCS` [3-methyl-1-butanethiol], for which the “Henry solubility constant Hcp” value is 0.00095. With `S=C=S` [carbon disulfide], the “Henry solubility constant Hcp” value is 0.00055. On to `CC(C)SC(C)C` [di-(2-propyl)-sulfide], for which the “Henry solubility constant Hcp” value was 0.003.

Take `CCSSCC` [diethyl disulfide]: the “Henry solubility constant Hcp” value was 0.004. On to `CCSCC` [diethyl sulfide], for which the “Henry solubility constant Hcp” value was 0.0047.

For the compound `CSC` [dimethyl sulfide], the “Henry solubility constant Hcp” value is 0.0053. Take `CCCSSCCC` [dipropyl disulfide]: the “Henry solubility constant Hcp” value was 0.0022. As for `CCCSCCC` [dipropyl sulfide], the “Henry solubility constant Hcp” value was 0.0033. Take `CCS` [ethanethiol]: the “Henry solubility constant Hcp” value was 0.0023. `CS` [methanethiol]: the “Henry solubility constant Hcp” value is 0.0028. Turning to `CCCSC` [methyl propyl sulfide], the “Henry solubility constant Hcp” value is 0.0043.
